This is an account of results in PubChem BioAssay (NCI).

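Test compounds were applied to cells in 96-well plates for 48 hours at 5 doses. TGI is the concentration that stops growth completely.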

Among the test systems are SR leukemia; RPMI-8226 leukemia; OVCAR-8 ovarian; M14 melanoma; SK-MEL-2 melanoma; COLO 205 colon; HT29 colon; 786-0 renal; HOP-92 NSCLC; MDA-N; HCT-15 colon.
Holding throughout (assay): growth of human tumour cells (NCI), 48 h

Take `O=C1/C(=C2\Sc3c(ccc(Cl)c3Cl)C2=O)Sc2c1ccc(Cl)c2Cl`: the TGI with SR leukemia, with RPMI-8226 leukemia, in the assay on OVCAR-8 ovarian, with M14 melanoma, with SK-MEL-2 melanoma and in the assay on COLO 205 colon was above 100 µM in each case. The TGI in the assay on HT29 colon, with 786-0 renal, with HOP-92 NSCLC, in the assay with MDA-N and in the assay on HCT-15 colon was above 100 µM in each case.

`CCOC(=O)C(CS)NC(=O)CCCCCCCC(=O)NC(CS)C(=O)OCC` (centres undefined): the TGI in the assay with SR leukemia, in the assay with RPMI-8226 leukemia, in the assay with OVCAR-8 ovarian, in the assay on M14 melanoma, in the assay on SK-MEL-2 melanoma and in the assay with COLO 205 colon was above 100 µM in each case. In addition, the TGI in the assay on HT29 colon, in the assay with 786-0 renal, with HOP-92 NSCLC, in the assay with MDA-N and in the assay on HCT-15 colon was above 100 µM each time.

On to `C/C(O)=C/c1nc2ccc([N+](=O)[O-])cc2nc1/C=C(/C)O`, for which the TGI with SR leukemia is 47 µM; with RPMI-8226 leukemia it was 65.1 µM; with OVCAR-8 ovarian, above 100 µM; in the assay on M14 melanoma it was above 100 µM; in the assay on SK-MEL-2 melanoma it was 96.8 µM; in the assay with COLO 205 colon, above 100 µM. The TGI in the assay on HT29 colon is above 100 µM; with 786-0 renal it was above 100 µM; in the assay on HOP-92 NSCLC it was 84.3 µM; in the assay on MDA-N, above 100 µM; with HCT-15 colon, above 100 µM.

On to `O=c1[nH]c2cc3[nH]c4ncccc4c(=O)c3cc2[nH]1`, for which the TGI with SR leukemia, in the assay on RPMI-8226 leukemia, in the assay with OVCAR-8 ovarian, in the assay with M14 melanoma, in the assay on SK-MEL-2 melanoma and with COLO 205 colon was above 10 µM in each case. The TGI with HT29 colon, in the assay with 786-0 renal, with HOP-92 NSCLC, in the assay on MDA-N and with HCT-15 colon was above 10 µM throughout.
